Activity calls are given as the source filed them.
Columns and labels:
[1] = tested on: Staphylococcus aureus; experiment: Antibacterial activity against methicillin resistant Staphylococcus aureus clinical isolate assessed as inhibition of bacterial growth incubated for 24 hrs; format: functional
[2] = tested on: Staphylococcus aureus; experiment: Antibacterial activity against Staphylococcus aureus clinical isolate assessed as inhibition of bacterial growth incubated for 24 hrs; format: functional
[3] = tested on: Staphylococcus aureus; experiment: Antibacterial activity against Staphylococcus aureus ATCC 25923 assessed as inhibition of bacterial growth incubated for 24 hrs; format: functional
[4] = tested on: Staphylococcus aureus; experiment: Antibacterial activity against Staphylococcus aureus ATCC 29213 assessed as inhibition of bacterial growth incubated for 24 hrs; format: functional
[5] = tested on: Enterococcus faecalis; experiment: Antibacterial activity against Enterococcus faecalis clinical isolate assessed as inhibition of bacterial growth incubated for 24 hrs; format: functional
[6] = tested on: Klebsiella pneumoniae; experiment: Antibacterial activity against Klebsiella pneumoniae clinical isolate assessed as inhibition of bacterial growth incubated for 24 hrs; format: functional
[7] = tested on: Escherichia coli; experiment: Antibacterial activity against Escherichia coli clinical isolate assessed as inhibition of bacterial growth incubated for 24 hrs; format: functional
[8] = tested on: Escherichia coli; experiment: Antibacterial activity against Escherichia coli ATCC 25922 assessed as inhibition of bacterial growth incubated for 24 hrs; format: functional
[9] = tested on: Pseudomonas aeruginosa; experiment: Antibacterial activity against Pseudomonas aeruginosa clinical isolate assessed as inhibition of bacterial growth incubated for 24 hrs; format: functional
[10] = tested on: Pseudomonas aeruginosa; experiment: Antibacterial activity against Pseudomonas aeruginosa ATCC 27853 assessed as inhibition of bacterial growth incubated for 24 hrs; format: functional
[11] = tested on: Acinetobacter baumannii; experiment: Antibacterial activity against Acinetobacter baumannii clinical isolate assessed as inhibition of bacterial growth incubated for 24 hrs; format: functional
[12] = tested on: Streptococcus pneumoniae; experiment: Antibacterial activity against Streptococcus pneumoniae ATCC 6305 assessed as inhibition of bacterial growth incubated for 24 hrs; format: functional
[13] = tested on: Streptococcus pyogenes; experiment: Antibacterial activity against Streptococcus pyogenes ATCC 19615 assessed as inhibition of bacterial growth incubated for 24 hrs; format: functional
[14] = tested on: Staphylococcus epidermidis; experiment: Antibacterial activity against Staphylococcus epidermidis ATCC 12228 assessed as inhibition of bacterial growth incubated for 24 hrs; format: functional
[15] = tested on: Staphylococcus aureus; experiment: Antibacterial activity against methicillin-resistant Staphylococcus aureus ATCC 43300 assessed as inhibition of bacterial growth incubated for 24 hrs; format: functional
[16] = tested on: Staphylococcus aureus; experiment: Antibacterial activity against Staphylococcus aureus ATCC 12600 assessed as inhibition of bacterial growth incubated for 24 hrs; format: functional
[17] = tested on: Staphylococcus aureus; experiment: Antibacterial activity against Staphylococcus aureus ATCC 6538 assessed as inhibition of bacterial growth incubated for 24 hrs; format: functional
[18] = tested on: Staphylococcus aureus; experiment: Antibacterial activity against Staphylococcus aureus CMCC(B)26003 assessed as inhibition of bacterial growth incubated for 24 hrs; format: functional
[19] = tested on: Staphylococcus aureus; experiment: Antibacterial activity against Staphylococcus aureus CMCC(B)26001 assessed as inhibition of bacterial growth incubated for 24 hrs; format: functional
[20] = tested on: Enterococcus faecium; experiment: Antibacterial activity against Enterococcus faecium ATCC 19434 assessed as inhibition of bacterial growth incubated for 24 hrs; format: functional
[21] = tested on: Enterococcus faecalis; experiment: Antibacterial activity against vancomycin-resistant Enterococcus faecalis clinical isolate p1-2007226001 assessed as inhibition of bacterial growth incubated for 24 hrs; format: functional
[22] = tested on: Enterococcus faecalis; experiment: Antibacterial activity against vancomycin-resistant Enterococcus faecalis clinical isolate p1-2007225053 assessed as inhibition of bacterial growth incubated for 24 hrs; format: functional
[23] = tested on: Enterococcus faecalis; experiment: Potency index, ratio of norfloxacin MIC to test compound MIC for antibacterial activity against vancomycin-resistant Enterococcus faecalis clinical isolate p1-2007225053 assessed as inhibition of bacterial growth incubated for 24 hrs; format: functional
[24] = tested on: Enterococcus faecalis; experiment: Potency index, ratio of ciprofloxacin MIC to test compound MIC for antibacterial activity against vancomycin-resistant Enterococcus faecalis clinical isolate p1-2007225053 assessed as inhibition of bacterial growth incubated for 24 hrs; format: functional
[25] = tested on: Staphylococcus aureus; experiment: Antibacterial activity against methicillin resistant Staphylococcus aureus clinical isolate assessed as inhibition of bacterial growth at 1 times MIC incubated under dark condition and measured upto 5 hrs relative to control; format: functional
[26] = tested on: Erythrocyte; experiment: Hemolytic activity in human Red blood cells assessed as concentration required for 5% hemolysis measured after 1.5 hrs by absorbance based assay; format: toxicity, cell-based
[27] = Hemolytic activity in human Red blood cells at 256 ug/ml measured after 1.5 hrs by absorbance based assay relative to control; format: toxicity, cell-based, Erythrocyte; details: red blood cells (erythrocytes), at 256 µg/mL, read-out: Activity
[28] = tested on: L02; experiment: Cytotoxicity against human L02 cells assessed as reduction in cell viability at 0.78 to 25 ug/ml measured after 24 hrs by MTT assay; format: toxicity, cell-based; details: l02, 24 h, dose 0.78-25 µg/ml
[29] = tested on: HUVEC; experiment: Cytotoxicity against HUVEC cells assessed as reduction in cell viability at 0.78 to 25 ug/ml measured after 24 hrs by MTT assay; format: toxicity, cell-based; details: human, dose 0.78-25 µg/ml
[30] = Cytotoxicity against HUVEC cells assessed as cell viability at 25 ug/ml measured after 24 hrs by MTT assay relative to control; format: toxicity, cell-based; details: human, at 25 µg/mL, read-out: Activity
[31] = Cytotoxicity against human normal Squamous epithelial cell (NOK) assessed as inhibition of cell growth measured after 24 hrs by MTT assay; format: toxicity, cell-based; details: normal squamous epithelial cells (NOK)
[32] = Cytotoxicity against human FHC assessed as inhibition of cell growth measured after 24 hrs by MTT assay; format: toxicity, cell-based; details: FHC cells
[33] = tested on: Staphylococcus aureus; experiment: Resistance development in methicillin resistant Staphylococcus aureus assessed as increase in MIC measured after 20 days; format: functional, organism-based; details: time 20.0 day
[34] = tested on: Pseudomonas aeruginosa; experiment: Resistance development in Pseudomonas aeruginosa assessed as increase in MIC measured after 20 days; format: functional, organism-based; details: time 20.0 day
[35] = tested on: Staphylococcus aureus; experiment: Antibacterial activity against ciprofloxacin-treated Staphylococcus aureus ATCC 6538 assessed as inhibition of bacterial growth measured after 24 hrs; format: functional
[36] = tested on: Pseudomonas aeruginosa; experiment: Antibacterial activity against ciprofloxacin-treated Pseudomonas aeruginosa ATCC 27853 assessed as inhibition of bacterial growth measured after 24 hrs; format: functional
[37] = tested on: Staphylococcus aureus; experiment: Antibiofilm activity in methicillin resistant Staphylococcus aureus assessed as biofilm eradication measured after 24 hrs by crystal violet staining based analysis; format: functional, organism-based; details: dose 1-2 µg/ml
[38] = tested on: Pseudomonas aeruginosa; experiment: Antibiofilm activity in Pseudomonas aeruginosa assessed as biofilm eradication measured after 24 hrs by crystal violet staining based analysis; format: functional, organism-based; details: dose 1-2 µg/ml
[39] = tested on: Pseudomonas aeruginosa; experiment: Induction of intracellular ROS generation in Pseudomonas aeruginosa assessed as increase in fluorescence intensity at 2 ug/ml incubated for 6 hrs by DCFH-DA dye based fluorescence analysis; format: functional, organism-based; details: dose 2.0 µg/ml
[40] = tested on: Pseudomonas aeruginosa; experiment: Induction of intracellular ROS generation in Pseudomonas aeruginosa assessed as increase in fluorescence intensity at 2 ug/ml incubated for 6 hrs in presence of N-acetyl-L-cysteine by DCFH-DA dye based fluorescence analysis; format: functional, organism-based; details: dose 2.0 µg/ml
[41] = tested on: Cell membrane; experiment: Induction of cell membrane depolarization in methicillin-resistant Staphylococcus aureus assessed as increase in fluorescence intensity at 1 ug/ml measured for 30 mins by DiSC35 dye based fluorescence analysis; format: cell membranes; details: dose 1.0 µg/ml
[42] = tested on: Cell membrane; experiment: Induction of cell membrane depolarization in Pseudomonas aeruginosa assessed as increase in fluorescence intensity at 1 ug/ml measured for 30 mins by DiSC35 dye based fluorescence analysis; format: cell membranes; details: dose 1.0 µg/ml
[43] = tested on: Cell membrane; experiment: Induction of cell membrane permeability in methicillin-resistant Staphylococcus aureus assessed as increase in fluorescence intensity at 1 to 2 ug/ml incubated for 6 hrs by PI staining based fluorescence analysis; format: cell membranes; details: dose 1-2 µg/ml
[44] = tested on: Cell membrane; experiment: Induction of cell membrane permeability in Pseudomonas aeruginosa assessed as increase in fluorescence intensity at 1 to 2 ug/ml incubated for 6 hrs by PI staining based fluorescence analysis; format: cell membranes; details: dose 1-2 µg/ml
[45] = tested on: Cell membrane; experiment: Induction of cell membrane damage in methicillin-resistant Staphylococcus aureus assessed as increase in nucleic acid leakage at 0 to 2 ug/ml incubated for 12 hrs by optical density based microplate reader analysis; format: cell membranes; details: dose 0-2 µg/ml
[46] = tested on: Cell membrane; experiment: Induction of cell membrane damage in Pseudomonas aeruginosa assessed as increase in nucleic acid leakage at 0 to 2 ug/ml incubated for 12 hrs by optical density based microplate reader analysis; format: cell membranes; details: dose 0-2 µg/ml
[47] = tested on: Staphylococcus aureus; experiment: Antibacterial activity against methicillin resistant Staphylococcus aureus assessed as reduction in metabolic activity by measuring reduction in fluorescence intensity at 0.5 to 2 times MIC incubated for 6 hrs by alamar blue assay; format: functional, organism-based
[48] = tested on: Pseudomonas aeruginosa; experiment: Antibacterial activity against Pseudomonas aeruginosa assessed as reduction in metabolic activity by measuring reduction in fluorescence intensity at 0.5 to 2 times MIC incubated for 6 hrs by alamar blue assay; format: functional, organism-based

C[C@H]1COc2c(CC#N)c(F)cc3c(=O)c(C(=O)O)cn1c23
2 µg/mL: MIC [5] | MIC [13] | MIC [35] | MIC [36]
> 10000 µg/mL: HC5 [26]
< 1%: hemolysis at 1.5 h, 256 ug/ml [27]
2: Ratio [24]
> 90%: viability at 24 h, 25 ug/ml [30]
~100%: inhibition (INH) [25]
0.5 µg/mL: MIC [1] | MIC [4] | MIC [12] | MIC [20] | MIC [21]
0.125 µg/mL: MIC [15] | MIC [18] | MIC [19] | MIC [22]
active: Activity [37] Dose-Dependent Effect | Activity [38] Dose-Dependent Effect | Activity [39] | Activity [41] | Activity [42] | Activity [43] | Activity [44] | Activity [45] | Activity [46] | Activity [47] | Activity [48]
inactive: Activity [33] | Activity [34] | Activity [40]
8: Ratio [23]
54 µg/mL: IC50 at 24 h [31]
21 µg/mL: IC50 at 24 h [32]
Non-Toxic: Activity [28] | Activity [29]
1 µg/mL: MIC [6] | MIC [7]
0.25 µg/mL: MIC [2] | MIC [3] | MIC [8] | MIC [9] | MIC [10] | MIC [11] | MIC [14] | MIC [16] | MIC [17]
